This is an account of results in patent US7985771B2, “Furanone derivatives” (Monsanto Technology LLC, priority 2002, dated 2011).

pEC50: −log10 of the molar value. Where only a bound is given, the exact number is not on record here.

The experiment has as its system ELAM (E-selectin) expression in endothelial cells. Description: E-selectin (ELAM) cell inflammation assay. The format is cell-based. To be noted: LPS and IL-1β stimulation, read-out: reduction of expression of ELAM, EC50. Here is the method:
Endothelial-Leukocyte Adhesion Molecule (ELAM), also known as E-selectin, is expressed on the surface of endothelial cells. In this assay, lipopolysaccharide (LPS) and IL-1β are used to stimulate the expression of ELAM; test agents are tested for their abilities to reduce this expression, in accordance with studies showing that reduction of leukocyte adhesion to endothelial cell surface is associated with decreased cellular damage (e.g., Takada, M., Et al., Transplantation 64: 1520-25, 1997; Steinberg, J. B., et al., J. Heart Lung Trans. 13:306-313, 1994).
Endothelial cells may be selected from any of a number of sources and cultured according to methods known in the art; including, for example, coronary artery endothelial cells, human brain microvascular endothelial cells (HBMEC; Hess, D.C., et al., Neurosci. Left. 213(1): 37-40, 1996), or lung endothelial cells. Cells are conveniently cultured in 96-well plates. Cells are stimulated by adding a solution to each well containing 10 μg/ml LPS and 100 pg/ml IL-1β for 6 hours in the presence of test agent (specific concentrations and time may be adjusted depending on the cell type). Treatment buffer is removed and replaced with pre-warmed Fixing Solution® (100 μl/well) for 25 minutes at room temperature. Cells are then washed 3×, then incubated with Blocking Buffer (PBS+2% FBS) for 25 minutes at room temperature. Blocking Buffer containing Monoclonal E-Selectin Antibody (1:750, Sigma Catalog #S-9555) is added to each well. Plates are sealed and stored at 4° overnight. Plates are washed 4× with 160 μL Blocking Buffer per well. Second Antibody-HRP diluted 1:5000 in Blocking Buffer is then added (100 μL/well), and plates are incubated at room temperature (protected from light) for two hours. Plates are then washed 4× with Blocking Buffer before addition of 100 μL of ABTS Substrate solution at room temperature (Zymed, Catalog #00-2024). Wells are allowed to develop for 35 minutes, before measurement at 402 nm in a Fluoroskan® Reader with shake program for 10 seconds. Positive results are recorded as a decrease in ELAM concentration in tested wells, as compared to control wells.
Turning to `CCOC(=O)C1(C[S+]([O-])Cc2ccco2)OC(=O)C(O)=C1S(=O)(=O)Cc1ccco1` (stereo not drawn) [2-(Furan-2-ylmethanesulfinylmethyl)-3-(furan-2-ylmethanesulfonyl)-4-hydroxy-5-oxo-2,5-dihydro-furan-2-carboxylic acid ethyl ester], the pEC50 was at least 4.52.

As to `CCOC(=O)C1OC(=O)C(O)=C1Sc1nc2ccccc2[nH]1` (stereo not drawn) [3-(1H-Benzoimidazol-2-ylsulfanyl)-4-hydroxy-5-oxo-2,5-dihydro-furan-2-carboxylic acid ethyl ester], the pEC50 is at least 4.52.

As for `CCOC(=O)C1(CSc2ccccc2Cl)OC(=O)C(O)=C1Sc1ccccc1Cl` (stereo not drawn) [3-(2-Chloro-phenylsulfanyl)-2-(2-chloro-phenylsulfanylmethyl)-4-hydroxy-5-oxo-2,5-dihydro-furan-2-carboxylic acid ethyl ester], the pEC50 is at least 4.52.

For `CN(C)CCSCC1(C(=O)O)OC(=O)C(O)=C1SCCN(C)C` (stereo not drawn) [3-(2-Dimethylamino-ethylsulfanyl)-2-(2-dimethylamino-ethylsulfanylmethyl)-4-hydroxy-5-oxo-2,5-dihydro-furan-2-carboxylic acid], the pEC50 is at least 4.52.

Consider `CCOC(=O)C1(CSc2nc3cc(Cl)c(Cl)cc3[nH]2)OC(=O)C(O)=C1Sc1nc2cc(Cl)c(Cl)cc2[nH]1` (stereo not drawn) [3-(5,6-Dichloro-1H-benzoimidazol-2-ylsulfanyl)-2-(5,6-dichloro-1H-benzoimidazol-2-ylsulfanylmethyl)-4-hydroxy-5-oxo-2,5-dihydro-furan-2-carboxylic acid ethyl ester], for which the pEC50 was at least 4.52.

Take `CCOC(=O)C1(CSc2nc3cc(Cl)ccc3s2)OC(=O)C(O)=C1Sc1nc2cc(Cl)ccc2s1` (stereo not drawn) [3-(5-Chloro-benzothiazol-2-ylsulfanyl)-2-(5-chloro-benzothiazol-2-ylsulfanylmethyl)-4-hydroxy-5-oxo-2,5-dihydro-furan-2-carboxylic acid ethyl ester]: the pEC50 was at least 4.52.

Turning to `O=C1OC(CSc2nc3ccccc3s2)(C(=O)O)C(Sc2nc3ccccc3s2)=C1O` (stereo not drawn) [3-(Benzothiazol-2-ylsulfanyl)-2-(benzothiazol-2-ylsulfanylmethyl)-4-hydroxy-5-oxo-2,5-dihydro-furan-2-carboxylic acid], the pEC50 was at least 4.52.

As for `CCCCCCSCC1(C(=O)OCC)OC(=O)C(O)=C1SCCCCCC` (stereo not drawn) [3-Hexylsulfanyl-2-hexylsulfanylmethyl-4-hydroxy-5-oxo-2,5-dihydro-furan-2-carboxylic acid ethyl ester], the pEC50 was at least 4.52.

For `O=C1NC(=O)C2(OC(=O)C(O)=C2Sc2nc3ccccc3[nH]2)C(=O)N1` [4-(1H-Benzoimidazol-2-ylsulfanyl)-3-hydroxy-1-oxa-7,9-diaza-spiro[4,5]dec-3-ene-2,6,8,10-tetraone], the pEC50 was at least 4.52.

With `O=C1OC(CO)(CSc2nc3cc(S(=O)(=O)O)ccc3[nH]2)C(Sc2nc3cc(S(=O)(=O)O)ccc3[nH]2)=C1O` (stereo not drawn) [4-(5-sulfo-1H-benzoimidazol-2-ylsulfanyl)-5-(5-sulfo-1H-benzoimidazol-2-ylsulfanylmethyl)-3-hydroxy-5-hydroxymethyl-5H-furan-2-one], the pEC50 is at least 4.52.

`CCOC(=O)C1(CSCc2ccco2)OC(=O)C(OC(C)=O)=C1SCc1ccco1` (stereo not drawn) [4-Acetoxy-3-(furan-2-ylmethylsulfanyl)-2-(furan-2-ylmethylsulfanylmethyl)-5-oxo-2,5-dihydro-furan-2-carboxylic acid ethyl ester]: the negative-log EC50 (pEC50) is at least 4.52.

Turning to `CCOC(=O)C1(CSCc2ccccc2)OC(=O)C(OC(C)=O)=C1SCc1ccccc1` (stereo not drawn) [4-Acetoxy-3-benzylsulfanyl-2-benzylsulfanylmethyl-5-oxo-2,5-dihydro-furan-2-carboxylic acid ethyl ester], the pEC50 was at least 4.52.

As to `CCOC(=O)C1(CSc2nc3ccccc3n2CC)OC(=O)C(OCC)=C1Sc1nc2ccccc2n1CC` (stereo not drawn) [4-Ethoxy-3-(1-ethyl-1H-benzoimidazol-2-ylsulfanyl)-2-(1-ethyl-1H-benzoimidazol-2-ylsulfanylmethyl)-5-oxo-2,5-dihydro-furan-2-carboxylic acid ethyl ester], the pEC50 is at least 4.52.

Take `Cc1ccc2[nH]c(SC3=C(O)C(=O)OC3C(=O)OC3CC(C)CCC3C(C)C)nc2c1` (stereo not drawn) [4-Hydroxy-3-(5-methyl-1H-benzoimidazol-2-ylsulfanyl)-5-oxo-2,5-dihydro-furan-2-carboxylic acid 2-isopropyl-5-methyl-cyclohexyl ester]: the negative-log EC50 (pEC50) was at least 4.52.

For the molecule `CCOC(=O)C1(CSc2ccc3ccccc3c2)OC(=O)C(O)=C1Sc1ccc2ccccc2c1` (stereo not drawn) [4-Hydroxy-3-(naphthalen-2-ylsulfanyl)-2-(naphthalen-2-ylsulfanylmethyl)-5-oxo-2,5-dihydro-furan-2-carboxylic acid ethyl ester], the pEC50 was at least 4.52.

Consider `CCOC(=O)C1(CSc2nnnn2-c2ccccc2)OC(=O)C(O)=C1Sc1nnnn1-c1ccccc1` (stereo not drawn) [4-Hydroxy-5-oxo-3-(1-phenyl-1H-tetrazol-5-ylsulfanyl)-2-(1-phenyl-1H-tetrazol-5-ylsulfanylmethyl)-2,5-dihydro-furan-2-carboxylic acid ethyl ester], for which the pEC50 was at least 4.52.

Consider `CCOC(=O)C1(CSCCS(=O)(=O)O)OC(=O)C(O)=C1SCCS(=O)(=O)O` (stereo not drawn) [4-Hydroxy-5-oxo-3-(2-sulfo-ethylsulfanyl)-2-(2-sulfo-ethylsulfanylmethyl)-2,5-dihydro-furan-2-carboxylic acid ethyl ester], for which the pEC50 is at least 4.52.

Regarding `CCOC(=O)C1(CSc2ccnc3cc(C(F)(F)F)ccc23)OC(=O)C(O)=C1Sc1ccnc2cc(C(F)(F)F)ccc12` (stereo not drawn) [4-Hydroxy-5-oxo-3-(7-trifluoromethyl-quinolin-4-ylsulfanyl)-2-(7-trifluoromethyl-quinolin-4-ylsulfanylmethyl)-2,5-dihydro-furan-2-carboxylic acid ethyl ester], the pEC50 is at least 4.52.

In the case of `CCOC(=O)C1(CSC(=S)N2CCCC2)OC(=O)C(O)=C1SC(=S)N1CCCC1` (stereo not drawn) [4-Hydroxy-5-oxo-3-(pyrrolidine-1-carbothioylsulfanyl)-2-(pyrrolidine-1-carbothioylsulfanylmethyl)-2,5-dihydro-furan-2-carboxylic acid ethyl ester], the pEC50 was at least 4.52.

Turning to `CN(C)CC(=O)OCC1(CSc2nc3ccccc3[nH]2)OC(=O)C(O)=C1Sc1nc2ccccc2[nH]1` (stereo not drawn) [Dimethylamino-acetic acid 3-(1H-benzoimidazol-2-ylsulfanyl)-2-(1H-benzoimidazol-2-ylsulfanylmethyl)-4-hydroxy-5-oxo-2,5-dihydro-furan-2-ylmethyl ester], the pEC50 was at least 4.52.

With `CCOC(=O)[C@]1(CSCC(NC(=O)CCC(N)C(=O)O)C(=O)NCC(=O)O)OC(=O)C(O)=C1SCC(NC(=O)CCC(N)C(=O)O)C(=O)NCC(=O)O` (stereo partly drawn) [R-3-[2-(4-Amino-4-carboxy-butyrylamino)-2-(carboxymethyl-carbamoyl)-ethylsulfanyl]-2-[2-(4-amino-4-carboxy-butyrylamino)-2-(carboxymethyl-carbamoyl)ethylsulfanylmethyl]-4-hydroxy-5-oxo-2,5-dihydro-furan-2-carboxylic acid ethyl ester], the pEC50 was at least 4.52.

What is called pEC50 is the negative decadic logarithm of the EC50, by convention in mol/L.
